Experimental data published in PMC8748493, “Helical structure motifs made searchable for functional peptide design” (Nature Communications, 2022).
Where no end group is shown, it is not given here.

What was measured:
[1] = tested on: Escherichia coli ATCC 25922; conditions: ATCC 25922, 18 h; for E. coli ATCC 25922 killed in the MIC90 experiments: 30
Experimental: (§1) Contrasting to the simulation results of W3_p1 and W3_p2, W3_db5 has only one Trp (W3) inserted into the bacterial membrane by the end of 1 μs simulation (Supplementary Movie 1 and Supplementary Fig. 3). […] Experiments are performed in pentaplicate and MIC90 is determined as the majority results of the 5 replicates (see “Methods”). It is worth mentioning that we could reproduce the reported MIC90 values for three published AMPs when using the same culture protocol to culture E. coli ATCC 25922. […] The latter result is consistent with the MD-based natural insertion results (Supplementary Fig. 3).
(§2) To measure the antimicrobial activity of peptides, MICs were determined by the broth-dilution assay as described in Clinical and Laboratory Standards Institute (CLSI) documents M27-A3 for yeasts[63] and M07-A9 for bacteria[64] with minor modifications. Briefly, E. coli ATCC 25922 and C. albicans SC5314 were recovered from frozen stock by growing overnight at 37 °C on LB (Luria-Bertani) and YPD (Yeast Extract-Peptone-Dextrose) agar plates, separately. A single colony of E. coli was inoculated into 5 ml LB medium and grown overnight at 37 °C with shaking at 220 rpm. Cells were then diluted into MHB (Mueller–Hinton broth) at 1:100, and grew until the optical density at 600 nm (OD600) reached 0.4 to 0.8. For C. albicans SC5314, a single colony was inoculated in YPD broth and grown overnight at 30 °C with shaking at 180 rpm. Cells from the overnight culture were subcultured into fresh YPD and grew to mid-log phase. Finally, E. coli and C. albicans cells obtained from the above-described were diluted into MHB and LYM, a modified RPMI 1640 medium[65] to a concentration of ~5 × 10^5 cells/ml and ~4 × 10^4 cells/ml, respectively. To determine the MIC values, one hundred microliters of cells was placed in each well of a clear bottom 96-well microplate, followed by independently adding 100 μl peptides with different concentrations (in MHB or LYM). The final concentrations in the wells were 120, 60, 30, 15, 7.5, 3.75, and 1.88 μg/ml for peptides, ~2.5 × 10^5 cells/ml for E. coli and ~2 × 10^4 cells/ml for C. albicans. The plate was incubated at 37 °C with shaking at 220 rpm for 18 h (E. coli) and at 180 rpm for 24 h (C. albicans). The OD600 values were measured using a iMark^TM Microplate Absorbance Reader (Bio-Rad). The MIC90 value was determined by 90% reduction in growth compared with that of the peptide-free growth control. Experiments were performed in pentaplicate, and MIC90 was determined as the majority value out of 5 repeats.

[2] = tested on: Escherichia coli ATCC 25922; conditions: E. coli ATCC 25922; cited from earlier work
Experimental: Contrasting to the simulation results of W3_p1 and W3_p2, W3_db5 has only one Trp (W3) inserted into the bacterial membrane by the end of 1 μs simulation (Supplementary Movie 1 and Supplementary Fig. 3). To further examine the bactericidal and anti-fungal activities of these AMPs, we measure the minimal inhibitory concentration (MIC90) at which the growth of 90% of the pathogenic fungus Candida albicans SC5314 and Escherichia coli ATCC 25922 can be inhibited. Experiments are performed in pentaplicate and MIC90 is determined as the majority results of the 5 replicates (see “Methods”). It is wor ...

Candida albicans SC5314 = conditions: SC5314, 24 h
Experimental: as §1, §2

human RBCs = assay type: cell-based
Experimental: The hemolytic toxicity was determined by the hemolysis against human RBCs as in previous publication. First, RBCs from healthy donors were mixed with EDTA in the collecting tubes to inhibit the coagulation. Then the RBCs were washed for three repeats as follows—centrifugation at RCF 800 × g for 10 min, removal of the supernatant, and resuspension with PBS buffer. Such washed RBCs stock was finally diluted with a PBS buffer to be the 10% (v/v) RBCs solution for assays. Then total eight samples of various final concentrations (240, 120, 60, 30, 15, 7.5, 3.75, and 1.88 μg/ml) for each AMP in 96-well microplate were prepared by mixing 10% RBCs and diluted AMP solutions, respectively, at ratio 1:1 (v/v) into final volume 200 μl. All samples were placed under the condition of 37 °C for 1 h and then centrifuged at RCF 800 g for 10 min. Finally, all these supernatants from samples and controls were picked out for the measurement of optical density at the 450 nm wavelength. The data processing was performed to calculate the hemolytic percentage defined as [Asample − Acontrol−]/[Acontrol+ − Acontrol−], where Acontrol+ and Acontrol− are the measurement at wavelength 450 nm for the positive and negative controls, that are 100 μl 10% RBCs suspended in 100 μl PBS buffer with and without 2% (v/v) Triton X-100 (a known detergent to lyse the RBCs), respectively. The final hemolytic percentage for AMPs at various concentrations was determined by the mean values of three repeated experiments, and MHC5 value, defined as the minimal concentration of AMPs leading to at least 5% hemolysis of RBCs, can be determined.

[3] = Circular dichroism, helicity percentage by DichroWeb; assay type: physicochemical; conditions: CD spectra 190 to 260 nm
Excerpt: We found W3_db5 adopts a higher helicity than W3_n2 that is found to be more helical than W3_n1 (Fig. 5), where W3_n1 has a helicity closest to Tat, a popular cell-penetrating peptide known to take a random coil structure. This low helicity is consistent with the fact that the “WGN WGG W” stretch in W3_n1 takes mostly coil and sheet structures in its original PDB file (PDB ID: 4F54). The online software DichroWeb[44] provides a helicity percentage prediction for Tat, W3_n1, W3_n2, W3_db5, W3_p1, W3_p2, and CM15 based on their spectra data over the wavelength 190 to 260 nm wavelength −6.5, 2.0, 18.3, 60.2, 57.8, 51.2, and 54%, respectively.
Fig. 5 The CD spectra from 190 to 260 nm for all the examined peptides in the study where CM15[1],[50] is a known helical AMP and Tat, a cell-penetrating peptide (YGRKKRRQRRR) extracted from the transactivating transcriptional activator, is in a random coil structure. All the experimental data are provided as a Source data file.

[4] = cited from earlier work
Excerpt: It should be carefully noted that helicity percentage is also concentration-dependent. NMR-resolved structures are usually determined at a concentration of several mM, while CD spectra measure at a few tens of μM. It has been reported by several studies that the same helical peptide resolved by NMR (at high concentration) has a higher helicity percentage than that of the same measured by CD (at a lower concentration). For instance, an intragenic AMP (PDB ID: 6VLA) has a helicity percentage of 94% according to its NMR-resolved structure but 59% by CD[48]. Similarly, an AMP from Whiteleg shrimp ...

Row | Substance | MIC90 vs. E. coli [1] | reported MIC [2] [µg/mL] | MIC90 vs. C. albicans (Candida albicans SC5314) [µg/mL] | further results
1 | KKWKDWESWRLKK [W3_n2] | >>120 μg/ml | – | – | E. coli ATCC 25922 killed in the MIC90 experiments [1]: 9.5%
2 | KKWGNWGGWRLKK [W3_n1] | >>120 μg/ml | – | – | E. coli ATCC 25922 killed in the MIC90 experiments [1]: 2.5%
3 | FKRIVQRIKDFLR-NH2 (C-terminus assumed) [FK13] | 25 µg/mL | 27.5 | – | –
4 | KKWKCWARWRLKK [W3_db5] | 30 µg/mL | – | 3.75 | hemolysis reduction of human RBCs as compared to templates W3-p1 and W3-p2 (human RBCs): 20–40 folds
5 | KWKLFKKIGAVLKVL-NH2 (C-terminus assumed) [CM15] | – | 4.0 | – | helicity percentage (DichroWeb, from CD spectra) [3]: 54%; helicity by NMR [4]: 80%; helicity percentage by CD [4]: 65%
6 | KKWLKWLKWLKKK [W3_p2] | 15 µg/mL | – | 7.5 | MHC5 (human RBCs): 90 µg/mL
7 | GLLKKIKWLL-NH2 (C-terminus assumed) [Anoplin-R5KT8W] | – | 15.1 | – | –
8 | KKWRKWLKWLAKK [W3_p1] | 15 µg/mL | – | 7.5 | MHC5 (human RBCs): 120 µg/mL
